Test results as given in patent publication US11066414B2, “Cot modulators and methods of use thereof” (Gilead Sciences, Inc., priority 2015, dated 2021).
Where two headings read alike, the source gives them in different places.

What was measured:
TNFα = test: Cot Monocyte TNFα Cell Based Assay
Human Cot = Human Cot (Homo sapiens (Human), UniProt P41279); test: High Throughput Cot Biochemical Assay
[1] = Homo sapiens, Monocyte, read-out: EC50 TNF, LPS-stimulated human monocytes, TNFα
[2] = IC50 HTRF, Cot HTRF (TR-FRET) biochemical assay

Chain of Human Cot (P41279 30-397): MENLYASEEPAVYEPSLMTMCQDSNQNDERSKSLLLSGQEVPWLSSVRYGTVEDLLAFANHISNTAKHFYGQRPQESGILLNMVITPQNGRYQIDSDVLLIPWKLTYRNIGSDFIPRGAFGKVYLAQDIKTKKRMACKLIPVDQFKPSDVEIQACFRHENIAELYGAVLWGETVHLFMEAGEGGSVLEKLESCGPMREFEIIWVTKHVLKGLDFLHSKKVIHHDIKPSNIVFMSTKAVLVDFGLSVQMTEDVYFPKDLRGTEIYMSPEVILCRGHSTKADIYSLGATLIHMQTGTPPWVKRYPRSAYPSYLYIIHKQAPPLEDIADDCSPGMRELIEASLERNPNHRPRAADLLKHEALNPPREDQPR

Row | Structure (SMILES) | EC50 (TNFα; [1]) [nM] | IC50 (Human Cot; [2]) [nM] | further results
1 | CC(C)(C)CNc1c(C#N)cnc2c(C#N)cc(N[C@H](c3cn(C4(C(N)=O)CCC4)nn3)c3cccc4cnccc34)cc12 [Example 587, (S)-1-(4-(((3,8-dicyano-4-(neopentylamino)-quinolin-6-yl)amino)(isoquinolin-5-yl)methyl)-1H-1,2,3-triazol-1-yl)cyclobutane-1-carboxamide] | 489 | 1 | –
2 | CC(C)(C)CNc1c(C#N)cnc2c(C#N)cc(N[C@H](c3cn(C4(C(F)(F)F)CC4)nn3)c3ccc(F)c4ncccc34)cc12 [Example 627, (S)-6-(((8-fluoroquinolin-5-yl)(1-(1-(trifluoro-methyl)cyclopropyl)-1H-1,2,3-triazol-4-yl)methyl)amino)-4-(neopentylamino)quinoline-3,8-dicarbonitrile] | 46 | 4 | –
3 | Cc1ncccc1[C@H](Nc1cc(Cl)c2ncc(C#N)c(N[C@H](C)c3ccccc3)c2c1)c1cn(C2COC2)nn1 [Example 171, 8-chloro-6-(((S)-(2-methylpyridin-3-yl)(1-(oxetan-3-yl)-1H-1,2,3-triazol-4-yl)methyl)amino)-4-(((R)-1-phenylethyl)amino)quinoline-3-carbonitrile] | 320 | 10 | –
4 | CC1(n2cc([C@@H](Nc3cc(Cl)c4ncc(C#N)c(NCC(C)(C)C(F)(F)F)c4c3)c3ccc(F)c4ncccc34)nn2)CC1 [Example 919, (S)-8-chloro-6-(((8-fluoroquinolin-5-yl)(1-(1-methylcyclopropyl)-1H-1,2,3-triazol-4-yl)methyl)amino)-4-((3,3,3-trifluoro-2,2-dimethylpropyl)amino)quinoline-3-carbonitrile] | – | – | EC50 (TNFα; Homo sapiens, Monocyte, read-out: EC50 TNF, LPS-stimulated human monocytes, TNFα TR-FRET): 49 nM; IC50 (Human Cot; IC50 HTRF, Cot HTRF (TR-FRET KinEASE) biochemical assay, 400 μM ATP): 2 nM
5 | CC(C)(C)N1CCC(n2cc([C@@H](Nc3cc(Cl)c4ncc(C#N)c(Nc5ccc(F)c(Cl)c5)c4c3)c3cccc4c3CNC4)nn2)CC1 [Example 59, (S)-6-(((1-(1-(tert-butyl)piperidin-4-yl)-1H-1,2,3-triazol-4-yl)(isoindolin-4-yl)methyl)amino)-8-chloro-4-((3-chloro-4-fluorophenyl)amino)quinoline-3-carbonitrile] | 892 | 2 | –
6 | COc1nccc2c([C@H](Nc3cc(C#N)c4ncc(C#N)c(NCC(C)(C)C(F)(F)F)c4c3)c3cn(C4(C(F)F)CC4)nn3)cccc12 [Example 821] | – | – | EC50 (TNFα; read-out: EC50 TNF, LPS-stimulated human monocytes, TNFα TR-FRET): 60 nM; IC50 (Human Cot; read-out: IC50 HTRF, Cot HTRF (TR-FRET KinEASE) biochemical assay, 400 μM ATP): 3 nM
7 | CCc1nc(F)ccc1[C@H](Nc1cc(Cl)c2ncc(C#N)c(NCC(C)(C)C)c2c1)c1cn(C2(C(F)(F)F)CC2)nn1 [Example 593, (S)-8-chloro-6-(((2-ethyl-6-fluoropyridin-3-yl)(1-(1-(trifluoromethyl)cyclopropyl)-1H-1,2,3-triazol-4-yl)methyl)amino)-4-(neopentylamino)quinoline-3-carbonitrile] | 298 | 8 | –
8 | [2H][C@](Nc1cc(Cl)c2ncc(C#N)c(NCC(C)(C)C)c2c1)(c1cccnc1)c1cn(-c2cccnc2)nn1 [Example 138, (S)-8-chloro-4-(neopentylamino)-6-((pyridin-3-yl(1-(pyridin-3-yl)-1H-1,2,3-triazol-4-yl)methyl-d)amino)quinoline-3-carbonitrile] | 141 | 3 | –
9 | CC(C)(C)CNc1c(C#N)cnc2c(Cl)cc(N[C@H](c3cn(C4(C(F)(F)F)CC4)nn3)c3cccc4ccncc34)cc12 [Example 533, (S)-8-chloro-6-((isoquinolin-8-yl(1-(1-(trifluoromethyl)cyclopropyl)-1H-1,2,3-triazol-4-yl)methyl)amino)-4-(neopentyl-amino)quinoline-3-carbonitrile] | 96 | 3 | –
10 | Cc1nc(F)ccc1[C@H](Nc1cc(Cl)c2ncc(C#N)c(NCC(C)(C)C)c2c1)c1cn(C2(C(=O)N(C)C)CC2)nn1 [Example 553, (S)-1-(4-(((8-chloro-3-cyano-4-(neopentyl-amino)quinolin-6-yl)amino)(6-fluoro-2-methylpyridin-3-yl)methyl)-1H-1,2,3-triazol-1-yl)-N,N-dimethylcyclopropane-1-carboxamide] | 64 | 3 | –
